Key:
[1] = molecular target: T1, Rho-associated protein kinase 2 (Bos taurus, UniProt Q28021); experiment: Kinase Activity Assay
Description: (§1) The enzyme activity was assayed by using an ATP regenerative NADH consuming system. The reaction was started with adding ATP to the mixture containing enzyme, substrate, and inhibitor. The decrease of NADH was time-dependent, and was measured at 340 nm with three independent measurements per data point. IC50 values were calculated using SigmaPlot 8.0 and Origin 5 software.

[2] = molecular target: cAMP-dependent protein kinase catalytic subunit alpha (Bos taurus, UniProt P00517); experiment: Kinase Activity Assay; conditions: pH 6.8; 25 °C
Description: as §1

[3] = molecular target: cAMP-dependent protein kinase catalytic subunit alpha [E127D] (Bos taurus, UniProt P00517, E127D); experiment: Kinase Activity Assay
Description: as §1

[4] = molecular target: cAMP-dependent protein kinase catalytic subunit alpha [L49I,Q181K,T183A] (Bos taurus, UniProt P00517, L49I/Q181K/T183A); experiment: Kinase Activity Assay
Description: as §1

[5] = molecular target: cAMP-dependent protein kinase catalytic subunit alpha [L49I,V123M,E127D,Q181K,T183A] (Bos taurus, UniProt P00517, E127D/L49I/Q181K/T183A/V123M); experiment: Kinase Activity Assay
Description: as §1

[6] = molecular target: cAMP-dependent protein kinase catalytic subunit alpha [L49I,V123M,Q181K,T183A] (Bos taurus, UniProt P00517, L49I/Q181K/T183A/V123M); experiment: Kinase Activity Assay
Description: as §1

[7] = molecular target: cAMP-dependent protein kinase catalytic subunit alpha [L49I] (Bos taurus, UniProt P00517, L49I); experiment: Kinase Activity Assay; conditions: pH 6.8; 25 °C
Description: as §1

[8] = molecular target: cAMP-dependent protein kinase catalytic subunit alpha [Q181K,T183A] (Bos taurus, UniProt P00517, Q181K/T183A); experiment: Kinase Activity Assay
Description: as §1

[9] = molecular target: cAMP-dependent protein kinase catalytic subunit alpha [T183A] (Bos taurus, UniProt P00517, T183A); experiment: Kinase Activity Assay
Description: as §1

[10] = molecular target: cAMP-dependent protein kinase catalytic subunit alpha [V123M,Q181K,T183A] (Bos taurus, UniProt P00517, Q181K/T183A/V123M); experiment: Kinase Activity Assay
Description: as §1

[11] = molecular target: cAMP-dependent protein kinase catalytic subunit alpha [V123M] (Bos taurus, UniProt P00517, V123M); experiment: Kinase Activity Assay; conditions: pH 6.8; 25 °C
Description: as §1

[12] = molecular target: T1, Rho-associated protein kinase 2; experiment: Kinase Inhibition Assay
Description: The kinase activity was determined by incubation of enzyme and its substrate, and test compound, in the presence ATP/[gamma-33P] ATP. After incubation, the reaction was stopped, and the 33P-phosphorylated substrate was determined by scintillation counting.

[13] = molecular target: cAMP-dependent protein kinase catalytic subunit alpha [V123M,T183A] (Bos taurus, UniProt P00517, T183A/V123M); experiment: Kinase Activity Assay
Description: as §1

[14] = molecular target: cAMP-dependent protein kinase catalytic subunit alpha [L49I,T183A] (Bos taurus, UniProt P00517, L49I/T183A); experiment: Kinase Activity Assay
Description: as §1

T1 sequence (Q28021 whole entry): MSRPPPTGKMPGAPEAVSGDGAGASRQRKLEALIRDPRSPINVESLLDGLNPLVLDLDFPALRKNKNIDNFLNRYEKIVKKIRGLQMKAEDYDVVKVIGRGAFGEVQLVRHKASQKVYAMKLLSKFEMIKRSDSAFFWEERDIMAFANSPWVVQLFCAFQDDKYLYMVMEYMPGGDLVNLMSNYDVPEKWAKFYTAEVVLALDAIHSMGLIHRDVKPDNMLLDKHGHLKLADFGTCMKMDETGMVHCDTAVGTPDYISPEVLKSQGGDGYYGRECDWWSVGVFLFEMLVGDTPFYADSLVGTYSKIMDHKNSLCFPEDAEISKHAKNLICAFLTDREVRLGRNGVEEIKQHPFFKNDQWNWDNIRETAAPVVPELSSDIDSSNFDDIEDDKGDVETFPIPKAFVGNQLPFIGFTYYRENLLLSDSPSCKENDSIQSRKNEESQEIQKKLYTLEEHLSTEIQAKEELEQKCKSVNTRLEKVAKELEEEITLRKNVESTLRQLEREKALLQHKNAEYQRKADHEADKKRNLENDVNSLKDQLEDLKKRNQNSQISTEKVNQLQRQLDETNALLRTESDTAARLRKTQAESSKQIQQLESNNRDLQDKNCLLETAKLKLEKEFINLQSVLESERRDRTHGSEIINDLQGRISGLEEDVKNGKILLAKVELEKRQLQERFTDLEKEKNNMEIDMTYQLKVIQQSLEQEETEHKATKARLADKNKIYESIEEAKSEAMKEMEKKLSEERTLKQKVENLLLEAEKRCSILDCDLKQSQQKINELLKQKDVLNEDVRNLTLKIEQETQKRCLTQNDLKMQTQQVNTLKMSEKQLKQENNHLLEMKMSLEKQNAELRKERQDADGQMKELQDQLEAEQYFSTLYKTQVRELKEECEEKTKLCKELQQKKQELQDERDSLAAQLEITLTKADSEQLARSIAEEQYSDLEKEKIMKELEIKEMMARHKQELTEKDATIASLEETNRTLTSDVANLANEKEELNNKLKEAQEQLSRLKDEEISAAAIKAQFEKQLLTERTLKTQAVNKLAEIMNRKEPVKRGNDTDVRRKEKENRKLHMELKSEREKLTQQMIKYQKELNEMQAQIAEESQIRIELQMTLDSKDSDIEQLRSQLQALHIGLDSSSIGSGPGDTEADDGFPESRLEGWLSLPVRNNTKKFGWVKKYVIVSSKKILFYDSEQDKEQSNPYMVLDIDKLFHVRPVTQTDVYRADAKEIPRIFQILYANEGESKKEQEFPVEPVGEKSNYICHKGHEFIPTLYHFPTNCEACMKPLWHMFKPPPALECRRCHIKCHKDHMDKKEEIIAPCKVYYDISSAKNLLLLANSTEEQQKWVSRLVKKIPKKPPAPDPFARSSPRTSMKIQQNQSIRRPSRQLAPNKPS

IC50 [1]	IC50 [2]	IC50 [3]	IC50 [4]	IC50 [5]	IC50 [6]	IC50 [7]	IC50 [8]	IC50 [9]	IC50 [10]	IC50 [11]	IC50 [13]	IC50 [14]	Structure (SMILES)	IC50 [12]
< 45 nM	394 nM	493 nM	–	–	89 nM	426 nM	109 nM	109 nM	223 nM	1520 nM	293 nM	–	Cc1cncc2cccc(S(=O)(=O)N3CCCNC[C@@H]3C)c12 [H-1152]	–
500 nM	42000 nM	16000 nM	6000 nM	6000 nM	18000 nM	28000 nM	9000 nM	9000 nM	25000 nM	60000 nM	31000 nM	12000 nM	C[C@@H](N)[C@H]1CC[C@H](C(=O)Nc2ccncc2)CC1 [4-[(1R)-1-aminoethyl]-N-(pyridin-4-yl)cyclohexane-1-carboxamide]	–

The next lines start with the molecule.

Structure (SMILES)	IC50 [1]	IC50 [2]	IC50 [3]	IC50 [4]	IC50 [5]	IC50 [6]	IC50 [7]	IC50 [8]	IC50 [9]	IC50 [10]	IC50 [11]	IC50 [13]	IC50 [14]	IC50 [12]
CCCCCCOC(=O)[C@]1(O)C[C@@H]2O[C@@]1(C)n1c3ccccc3c3c4c(c5c6ccccc6n2c5c31)C(=O)NC4 [hexyl (15R,16S,18S)-16-hydroxy-15-methyl-3-oxo-28-oxa-4,14,19-triazaoctacyclo[12.11.2.1^{15,18}.0^{2,6}.0^{7,27}.0^{8,13}.0^{19,26}.0^{20,25}]octacosa-1(26),2(6),7(27),8(13),9,11,20(25),21,23-nonaene-16-carboxylate]	1800 nM	56 nM	1820 nM	5540 nM	1300 nM	2010 nM	10300 nM	< 45 nM	< 45 nM	68 nM	222 nM	–	–	–
CN[C@@H]1C[C@H]2O[C@@](C)([C@@H]1OC)n1c3ccccc3c3c4c(c5c6ccccc6n2c5c31)C(=O)NC4	–	–	–	–	–	–	–	–	–	–	–	–	–	1.2 nM
O=S(=O)(c1cccc2cnccc12)N1CCCNCC1 [AT877]	485 nM	–	–	–	–	–	–	–	–	–	–	–	–	–
